Test results taken from US10827754B2, “Fungicidal composition comprising a pyridylethylbenzamide derivative and a compound capable of inhibiting the ergosterol biosynthesis” (BAYER INTELLECTUAL PROPERTY GMBH, priority 2004, dated 2020).

Assays:
Type in all cases: in vivo
Puccinia recondita [1] = assay: Example 8: efficacy against Puccinia recondita on wheat plants, formulated compounds; settings: 240 h, alone, grading 10 days after contamination
Protocol: The formulated compounds are diluted with water to obtain the desired active material concentration Wheat plants (Scipion variety) in starter cups, sown on 50/50 peat soil-pozzolana substrate and grown at 12° C., are treated at the 1-leaf stage (10 cm tall) by spraying with the aqueous suspension described above.
(§1) Plants, used as controls, are treated with an aqueous solution not containing the active material.
(§2) After 24 hours, the plants are contaminated by spraying the leaves with an aqueous suspension of Puccinia recondita spores (100,000 spores per ml). The spores are collected from a 10-day-old contaminated wheat and are suspended in water containing 2.5 ml/l of tween 80 10%. The contaminated wheat plants are incubated for 24 hours at 20° C. and at 100% relative humidity, and then for 10 days at 20° C. and at 70% relative humidity. Grading is carried out 10 days after the contamination, in comparison with the control plants.

Botrytis cinerea [2] = assay: Example 16: efficacy against Botrytis cinerea on gherkin plants, formulated compounds; settings: alone, grading 5 to 7 days after contamination
Protocol: (§3) The formulated compounds are diluted with water to obtain the desired active material concentration.
(§4) Gherkin plants (Petit vert de Paris variety) in starter cups, sown on a 50/50 peat soil-pozzolana substrate and grown at 18-20° C., are treated at the cotyledon Z11 stage by spraying with the aqueous suspension described above. Plants, used as controls, are treated with an aqueous solution not containing the active material.
(§5) After 24 hours, the plants are contaminated by depositing drops of an aqueous suspension of Botrytis cinerea spores (150,000 spores per ml) on upper surface of the leaves. The spores are collected from a 15-day-old culture and are suspended in a nutrient solution composed of: • 20 g/L of gelatine • 50 g/L of cane sugar • 2 g/L of NH4NO3 • 1 g/L of KH2PO4
(§6) The contaminated gherkin plants are settled for 5/7 days in a climatic room at 15-11° C. (day/night) and at 80% relative humidity. Grading (% of efficacy) is carried out 5 to 7 days after the contamination, in comparison with the control plants.

Botrytis cinerea [3] = assay: Example 13: efficacy against Botrytis cinerea on gherkin plants, formulated compounds; settings: alone, grading 5 to 7 days after contamination
Protocol: as §3, §4, §5, §6

Botrytis cinerea [4] = assay: Example 5: efficacy against Botrytis cinerea on gherkin plants; settings: alone, grading 5 to 7 days after contamination
Protocol: (§7) The active ingredients tested are prepared by potter homogenisation in a mixture of acetone/tween/water. This suspension is then diluted with water to obtain the desired active material concentration.
as §4, §5, §6

[5] = test system: Erysiphe graminis f sp. tritici; assay: Example 14: efficacy against Erysiphe graminis on wheat plants, formulated compounds; settings: Blumeria graminis, alone, grading 7 to 14 days after contamination
Protocol: The formulated compounds are diluted with water to obtain the desired active material concentration Wheat plants (Audace variety) in starter cups, sown on 50/50 peat soil-pozzolana substrate and grown at 12° C., are treated at the 1-leaf stage (10 cm tall) by spraying with the aqueous suspension described above.
as §1
(§8) After 24 hours, the plants are contaminated by dusting them with Erysiphe graminis f sp. tritici spores, the dusting being carried out using diseased plants.
(§9) Grading is carried out 7 to 14 days after the contamination, in comparison with the control plants.

[6] = test system: Erysiphe graminis f sp. tritici; assay: Example 17: efficacy against Erysiphe graminis on wheat plants, formulated compounds; settings: Blumeria graminis, alone, grading 7 to 14 days after contamination
Protocol: The formulated compounds (Compound 1 and a mix of spiroxamine (300 g/l) and prothioconazole (160 g/l) are diluted with water to obtain the desired active material concentration Wheat plants (Audace variety) in starter cups, sown on 50/50 peat soil-pozzolana substrate and grown at 12° C., are treated at the 1-leaf stage (10 cm tall) by spraying with the aqueous suspension described above.
as §1, §8, §9

[7] = test system: Mycosphaerella graminicola; assay: Example 12: efficacy against Mycosphaerella graminicola on wheat plants, formulated compounds; settings: Zymoseptoria tritici
Protocol: (§10) The formulated compounds are diluted with water to obtain the desired active material concentration
(§11) Wheat plants (Scipion variety), sown on a 50/50 peat soil-pozzolana substrate in starter cups and grown at 12° C., are treated at the 1-leaf stage (10 cm tall) by spraying with the aqueous suspension described above. Plants, used as controls, are treated with an aqueous solution not containing the active material.
(§12) After 24 hours, the plants are contaminated by spraying them with an aqueous suspension of Mycosphaerella graminicola spores (500 000 spores per ml). The spores are collected from a 7-day-old culture. The contaminated wheat plants are incubated for 72 hours at 18° C. and at 100% relative humidity, and then for 21 to 28 days at 90% relative humidity.
(§13) Grading (% of efficacy) is carried out 21 to 28 days after the contamination, in comparison with the control plants.

[8] = test system: Mycosphaerella graminicola; assay: Example 1: efficacy against Mycosphaerella graminicola on wheat plants, spray 24 h before contamination; settings: Zymoseptoria tritici, alone, grading 21 to 28 days after contamination
Protocol: as §7, §11, §12, §13

Puccinia recondita [9] = assay: Example 10: efficacy against Puccinia recondita on wheat plants; settings: 240 h, alone, grading 10 days after contamination
Protocol: as §7
Wheat plants (Scipion variety) in starter cups, sown on 50/50 peat soil-pozzolana substrate and grown at 12° C., are treated at the 1-leaf stage (10 cm tall) by spraying with the aqueous suspension described above.
as §1, §2

[10] = test system: Erysiphe graminis f sp. tritici; assay: Example 2: efficacy against Erysiphe graminis on wheat plants, spray 24 h before contamination; settings: Blumeria graminis, alone, grading 7 to 14 days after contamination
Protocol: as §7
Wheat plants (Audace variety) in starter cups, sown on 50/50 peat soil-pozzolana substrate and grown at 12° C., are treated at the 1-leaf stage (10 cm tall) by spraying with the aqueous suspension described above.
as §1, §8, §9

Botrytis cinerea [11] = assay: Example 15: efficacy against Botrytis cinerea on gherkin plants, formulated compounds; settings: read-out: % Efficacy
Protocol: as §3, §4, §5, §6

Botrytis cinerea [12] = assay: Example 3: efficacy against Botrytis cinerea on gherkin plants, spray 24 h before contamination; settings: alone, grading 5 to 7 days after contamination
Protocol: as §7, §4, §5, §6

Botrytis cinerea [13] = assay: Example 9: efficacy against Botrytis cinerea on gherkin plants, formulated compounds; settings: alone, grading 5 to 7 days after contamination
Protocol: as §3, §4, §5, §6

Sphaerotheca fuliginea = assay: Example 11: efficacy against Sphaerotheca fuliginea on gherkin plants, formulated compounds; settings: Podosphaera fuliginea, 504 h, alone, grading 21 days after contamination
Protocol: as §10
Gherkin plants (Vert petit de Paris variety) in starter cups, sown on a 50/50 peat soil-pozzolana substrate and grown at 20° C./23° C., are treated at the 2-leaves stage by spraying with the aqueous suspension described above. Plants, used as controls, are treated with an aqueous solution not containing the active material.
After 24 hours, the plants are contaminated by spraying them with an aqueous suspension of Sphaerotheca fuliginea spores (100 000 spores per ml). The spores are collected from a contaminated plants. The contaminated gerkhin plants are incubated at about 20° C./25° C. and at 60/70% relative humidity.
Grading (% of efficacy) is carried out 21 days after the contamination, in comparison with the control plants.

Botrytis cinerea [14] = assay: Example 6: efficacy against Botrytis cinerea on gherkin plants; settings: alone, grading 5 to 7 days after contamination
Protocol: as §7, §4, §5, §6

[15] = test system: Erysiphe graminis f sp. tritici; assay: Example 4: efficacy against Erysiphe graminis on wheat plants, formulated compounds; settings: Blumeria graminis, alone, grading 7 to 14 days after contamination
Protocol: The formulated (concentrated suspension) compounds are diluted with water to obtain the desired active material concentration Wheat plants (Audace variety) in starter cups, sown on 50/50 peat soil-pozzolana substrate and grown at 12° C., are treated at the 1-leaf stage (10 cm tall) by spraying with the aqueous suspension described above.
as §1, §8, §9

[16] = test system: Erysiphe graminis f sp. tritici; assay: Example 7: efficacy against Erysiphe graminis on wheat plants, formulated compounds; settings: Blumeria graminis, alone, grading 7 to 14 days after contamination
Protocol: The formulated compounds are diluted with water to obtain the desired active material concentration. Wheat plants (Audace variety) in starter cups, sown on 50/50 peat soil-pozzolana substrate and grown at 12° C., are treated at the 1-leaf stage (10 cm tall) by spraying with the aqueous suspension described above.
as §1
After 24 hours, the plants are contaminated by dusting them with Erysiphe graminis f sp. tritici spores, the dusting being carried out using diseased plants. Grading is carried out 7 to 14 days after the contamination, in comparison with the control plants.

Fc1ccc([C@]2(Cn3cncn3)O[C@H]2c2ccccc2Cl)cc1 (racemic) [Epoxiconazole, reference compound]
Emax at 15.6 g/ha (Puccinia recondita [1]; dose 15.6 g/ha): 25%

CC(C)(C)C(O)C(Oc1ccc(-c2ccccc2)cc1)n1cncn1 (stereo not drawn) [Bitertanol, reference compound]
Emax at 333 ppm (Botrytis cinerea [2]; dose 333 ppm): 0%

O=C(NCCc1ncc(C(F)(F)F)cc1Cl)c1ccccc1C(F)(F)F [Compound 1, N-{2-[3-chloro-5-(trifluoromethyl)-2-pyridinyl]ethyl}-2-trifluoromethylbenzamide]
Emax at 31.2 g/ha (Botrytis cinerea [3]; dose 31.2 g/ha): 20%
Emax at 62.5 g/ha (Botrytis cinerea [3]): 30%
Emax at 37 ppm (Botrytis cinerea [4]; dose 37 ppm): 0%
Emax at 111 ppm (Botrytis cinerea [4]): 80%
Emax at 500 g/ha ([5]; dose 500 g/ha): 44%
Emax at 125 g/ha [6]: 0%
Emax at 62.5 g/ha ([7]; dose 62.5 g/ha, alone, wheat, grading 21 to 28 days after contamination): 77%
Emax at 15 g/ha [8]: 25%
Emax at 31 g/ha [8]: 65%
Emax at 12.3 ppm (Botrytis cinerea [2]; dose 12.3 ppm): 5%
Emax at 250 g/ha (Puccinia recondita [9]): 0%
Emax at 62.5 g/ha ([10]; dose 62.5 g/ha): 0%
Emax at 125 g/ha [10]: 20%
Emax at 62.5 g/ha (Puccinia recondita [1]; dose 62.5 g/ha): 0%
Emax at 250 g/ha (Puccinia recondita [1]; dose 250 g/ha): 0%
Emax at 37 ppm (Botrytis cinerea [11]; dose 37 ppm, alone, gherkin, grading 5 to 7 days after contamination): 50%
Emax at 12 ppm (Botrytis cinerea [12]; dose 12 ppm): 0%
Emax at 37 ppm (Botrytis cinerea [12]): 30%
Emax at 111 ppm (Botrytis cinerea [12]): 80%
Emax at 12.3 ppm (Botrytis cinerea [13]; dose 12.3 ppm): 0%
Emax at 37 ppm (Botrytis cinerea [13]; dose 37 ppm): 50%
Emax at 4.1 ppm (Sphaerotheca fuliginea; dose 4.1 ppm): 28%
Emax at 4 ppm (Botrytis cinerea [14]; dose 4 ppm): 10%
Emax at 62.5 g/ha ([15]; dose 62.5 g/ha): 10%
Emax at 250 g/ha ([16]; dose 250 g/ha): 40%

CC(C1CC1)C(O)(Cn1cncn1)c1ccc(Cl)cc1 (stereo not drawn) [Cyproconazole, reference compound]
Emax at 31.2 g/ha ([15]; dose 31.2 g/ha): 15%

CC1COC(Cn2cncn2)(c2ccc(Oc3ccc(Cl)cc3)cc2Cl)O1 (stereo not drawn) [Difenconazole, reference compound]
Emax at 111 ppm (Botrytis cinerea [4]): 15%
Emax at 333 ppm (Botrytis cinerea [4]; dose 333 ppm): 25%

CC1(C(=O)Nc2ccc(O)c(Cl)c2Cl)CCCCC1 [Fenhexamid, reference compound]
Emax at 37 ppm (Sphaerotheca fuliginea; dose 37 ppm): 35%

CC(Cc1ccc(C(C)(C)C)cc1)CN1C[C@@H](C)O[C@@H](C)C1 (stereo partly drawn) [Fenpropimorph, reference compound]
Emax at 62.5 g/ha (Botrytis cinerea [3]): 10%
Emax at 125 g/ha (Botrytis cinerea [3]; dose 125 g/ha): 30%

CCCCC(O)(Cn1cncn1)c1ccc(Cl)cc1Cl (stereo not drawn) [Hexaconazole, reference compound]
Emax at 111 ppm (Botrytis cinerea [14]; dose 111 ppm): 15%

CC1(C)CCC(Cc2ccc(Cl)cc2)C1(O)Cn1cncn1 (stereo not drawn) [Metconazole, reference compound]
Emax at 31.2 g/ha ([16]; dose 31.2 g/ha): 50%

CCCCC(C#N)(Cn1cncn1)c1ccc(Cl)cc1 (stereo not drawn) [Myclobutanil, reference compound]
Emax at 333 ppm (Botrytis cinerea [13]; dose 333 ppm): 0%

CCCN(CCOc1c(Cl)cc(Cl)cc1Cl)C(=O)n1ccnc1 [Prochloraz, reference compound]
Emax at 250 g/ha ([7]; read-out: % Efficacy): 54%

CCCC1COC(Cn2cncn2)(c2ccc(Cl)cc2Cl)O1 (stereo not drawn) [Propiconazole, reference compound]
Emax at 37 ppm (Botrytis cinerea [12]): 30%
Emax at 111 ppm (Botrytis cinerea [12]): 50%
Emax at 333 ppm (Botrytis cinerea [12]; dose 333 ppm): 70%

OC(Cc1ccccc1Cl)(Cn1nc[nH]c1=S)C1(Cl)CC1 (stereo not drawn) [Prothioconazole, reference compound]
Emax at 125 g/ha [10]: 0%
Emax at 250 g/ha ([10]; dose 250 g/ha): 60%

CCCN(CC)CC1COC2(CCC(C(C)(C)C)CC2)O1 (stereo not drawn) [Spiroxamine, reference compound]
Emax at 125 g/ha ([5]; dose 125 g/ha): 0%

CC(C)(C)C(O)(CCc1ccc(Cl)cc1)Cn1cncn1 (stereo not drawn) [Tebuconazole, reference compound]
Emax at 15 g/ha [8]: 15%
Emax at 31 g/ha [8]: 15%

CC(C)(C)C(O)C(Oc1ccc(Cl)cc1)n1cncn1 (stereo not drawn) [Triadimenol, reference compound]
Emax at 250 g/ha (Puccinia recondita [9]): 50%

O=CNC(N1CCN(C(NC=O)C(Cl)(Cl)Cl)CC1)C(Cl)(Cl)Cl (stereo not drawn) [Triforine]
Emax at 37 ppm (Botrytis cinerea [11]): 0%
Emax at 111 ppm (Botrytis cinerea [11]): 15%
